According to BindingDB's records for doi:10.1021/jm030424e (Isis Pharmaceuticals, 2004):

Experiment: Inhibition HCV RNA replication

SMILES	EC50
CO[C@@H]1[C@H](O)[C@@H](CO)O[C@H]1n1cnc2c(N)ncnc21	> 50 µM
C[C@@]1(O)[C@@H](CO)O[C@@H](n2cnc3c(N)ncnc32)[C@@H]1O	> 50 µM
Nc1nc2c(ncn2[C@@H]2O[C@H](CO)[C@@H](O)[C@H]2F)c(=O)[nH]1 [2-Amino-9-((2R,3R,4R,5R)-3-fluoro-4-hydroxy-5-hydroxymethyl-tetrahydro-furan-2-yl)-1,9-dihydro-purin-6-one]	> 50 µM
CO[C@@H]1[C@H](O)[C@@H](CO)O[C@H]1n1cnc2c(=O)[nH]c(N)nc21 [2-Amino-9-((2R,3R,4R,5R)-4-hydroxy-5-hydroxymethyl-3-methoxy-tetrahydro-furan-2-yl)-1,9-dihydro-purin-6-one]	> 50 µM
C[C@@]1(O)[C@H](O)[C@@H](CO)O[C@H]1n1cnc2c(N)ncnc21 [(2R,3R,4R,5R)-2-(6-amino-9H-purin-9-yl)-5-(hydroxymethyl)-3-methyl-tetrahydrofuran-3,4-diol]	0.3 µM
C[C@@]1(O)[C@H](O)[C@@H](CO)O[C@H]1n1cnc2cncnc21 [(2R,3R,4R,5R)-5-(hydroxymethyl)-3-methyl-2-(9H-purin-9-yl)oxolane-3,4-diol]	> 50 µM
C[C@]1(O)[C@H](O)[C@@H](CO)O[C@H]1n1cnc2c(N)ncnc21 [(2R,3S,4R,5R)-2-(6-amino-9H-purin-9-yl)-5-(hydroxymethyl)-3-methyloxolane-3,4-diol]	> 50 µM

Other lines, results leading:

EC50	SMILES
> 50 µM	Nc1nc2c(ncn2[C@@H]2O[C@H](CO)[C@H](O)[C@H]2O)c(=O)[nH]1
> 50 µM	C[C@]1(O)[C@@H](CO)O[C@@H](n2cnc3c(N)ncnc32)[C@@H]1O
50 µM	Nc1nc2c(ncn2[C@@H]2O[C@H](CO)C[C@H]2O)c(=O)[nH]1 [2-Amino-9-((2R,3R,5S)-3-hydroxy-5-hydroxymethyl-tetrahydro-furan-2-yl)-1,9-dihydro-purin-6-one]
> 50 µM	Nc1nc2c(ncn2[C@@H]2O[C@H](CO)[C@@H](F)[C@H]2O)c(=O)[nH]1 [2-Amino-9-((2R,3S,4S,5R)-4-fluoro-3-hydroxy-5-hydroxymethyl-tetrahydro-furan-2-yl)-1,9-dihydro-purin-6-one]
7 µM	C[C@@]1(O)[C@H](O)[C@@H](CO)O[C@H]1n1cnc2c(N)nc(N)nc21 [(2R,3R,4R,5R)-2-(2,6-diamino-9H-purin-9-yl)-5-(hydroxymethyl)-3-methyloxolane-3,4-diol]
> 50 µM	C[C@@]1(O)[C@H](O)[C@@H](CO)O[C@H]1n1cnc2cnc(N)nc21 [(2R,3R,4R,5R)-2-(2-amino-9H-purin-9-yl)-5-(hydroxymethyl)-3-methyloxolane-3,4-diol]
> 50 µM	CC[C@@]1(O)[C@H](O)[C@@H](CO)O[C@H]1n1cnc2c(N)ncnc21 [(2R,3R,4R,5R)-2-(6-amino-9H-purin-9-yl)-3-ethyl-5-(hydroxymethyl)oxolane-3,4-diol]
> 50 µM	C[C@@]1(O)[C@H](O)[C@@H](CO)O[C@H]1n1cnc2c(=O)[nH]cnc21 [(2R,3R,4R,5R)-2-(6-hydroxy-9H-purin-9-yl)-5-(hydroxymethyl)-3-methyloxolane-3,4-diol]
> 50 µM	CO[C@]1(C)[C@H](O)[C@@H](CO)O[C@H]1n1cnc2c(N)ncnc21 [(2R,3R,4R,5R)-5-(6-amino-9H-purin-9-yl)-2-(hydroxymethyl)-4-methoxy-4-methyloxolan-3-ol]
> 50 µM	Nc1ncnc2c1ncn2[C@@H]1O[C@H](CO)[C@@H](O)[C@@H]1O [adenine arabinoside]
